Measured values from patent US20150284812A1 (priority 2012, published 2015).
Where two headings read alike, the source gives them in different places.

How the values were obtained:
CYP3A7-DsRed [1] = test: Liver injury test using CYP3A4+/7R MAC-introduced mice, observation under fluorescence microscope; type: in vivo, mouse; details: 8 weeks old mice; 5% carbon tetrachloride dissolved in DMSO; observed for 3 days
Description: The CYP3A4+/7MAC-introduced mice produced in Example 5 strongly expressed DsRed for several weeks after the birth. […] In the CYP3A4+/7R MAC-introduced mice, EGFP functions as a marker showing introduction of MAC in the cells.

CYP3A7-DsRed [2] = test: Liver injury test using CYP3A4+/7R MAC-introduced mice, analysis by quantitative RT-PCR; type: in vivo, mouse; details: adult mice; 5% carbon tetrachloride; Days 1, 2 and 3 versus non-administered (Day 0)
Experimental: Using RNAs extracted from the livers of the CYP3A4+/7R MAC-introduced mice to which 5% carbon tetrachloride had been administered in Test Example 11 and non-administered (Day 0) mice, an increase in the expression of DsRed on Days 1, 2 and 3 after the administration was analyzed by quantitative RT-PCR (FIG. 19).

[3] = tested on: gene expression control region of the human CYP3A4 gene (EGFP reporter)
Experimental: (§1) Forty-eight hours later (corresponding to Day 14 of differentiation culture), the total area fluorescence intensities of EGFP and DsRed were analyzed under a fluorescence microscope (FIG. 16).

[4] = tested on: gene expression control region of the human CYP3A7 gene (DsRed reporter)
Experimental: as §1

CYP3A7 = test: Expression of CYP3A7 upon cell damage, liver damage by a CYP-inducing drug in humanized CYP3A model mouse; type: in vivo; details: versus corn oil administration control group, hepatocyte regeneration after liver damage
Description: The expression of CYP3A7 during the injury of hepatocytes was examined by a method of liver regeneration after partial hepatectomy performed on 70% living liver, using a humanized CYP3A model mouse into which human CYP3A4 and CYP3A7 have been incorporated, a method of damaging the liver of the same mouse as described above by administration of a CYP-inducing drug, and a method of transplanting frozen human hepatocytes into the liver injury model mouse. In the method of liver regeneration after the partial hepatectomy, mice that were fed after 70% of the liver had been excised by ligating it with a cord were produced. Thereafter, the mice were successively subjected to dissection from Days 1 to 5 to collect the liver from each mouse, and gene expression was then examined. In the method of damaging the liver by administration of a CYP-inducing drug, the liver was excised from each mouse belonging to a PCN administration group and a corn oil administration control group, and gene expression was then examined. In the method of transplanting frozen human hepatocytes into the living mouse, a part of the humanized mouse liver was obtained from PhenixBio, and gene expression was then examined.

Compound | fluorescence intensity of DsRed in the liver (CYP3A7-DsRed [1]) | expression of DsRed in the liver (quantitative RT-PCR) (CYP3A7-DsRed [2]) | expression of EGFP (total area fluorescence intensity) [3] | fluorescence intensity of DsRed ([4]; HepaRG clone C3, drug in 1% DMSO, 48 hours, DMSO control group = 1) | expression of CYP3A7 in liver (CYP3A7) | cellular damage to HepaRG cells (HepaRG cells; HepaRG cells) | fluorescence intensity of DsRed [4] | cellular damage to HepaRG cells (HepaRG cells)
ClC(Cl)(Cl)Cl [carbon tetrachloride] | increase | increases |  |  |  |  |  | 
CC(=O)[C@H]1[C@H](C#N)C[C@H]2[C@@H]3CC=C4C[C@@H](O)CC[C@]4(C)[C@H]3CC[C@@]21C [PCN, pregnenolone 16α-carbonitrile] |  |  | non-inducibility | increase | transiently increased | high cellular damage |  | 
Clc1ccccc1C(c1ccccc1)(c1ccccc1)n1ccnc1 [clotrimazole] |  |  | induced |  |  |  | increase | high cellular damage
